Data taken from PubChem BioAssay AID1963963 (Molecular Pharmacology Branch, DTP, NCI, 2024).

Test system: 958667-338-R-J2-PDC tumor spheroids viability
Assay: Anticancer human tumor 958667-338-R-J2-PDC patient-derived colon adenocarcinoma cell line growth inhibition [PI3K]
Conditions: spheroids with HUVEC and MSC; for IC50: curve of first compound; for viability, T/C: stronger effect = lower value
From the text: Combinatorial screen of targeted agents with the PI3K inhibitors inavolisib, alpelisib, duvelisib, and copanlisib in multi-cell type tumor spheroids
A high-throughput screen of multi-cell type tumor spheroids was designed to identify active combinations of targeted small molecules and PI3K pathway inhibitors. Complex spheroids include a stromal component modeled by human endothelial cells (HUVEC) and fibroblasts modeled by human mesenchymal stem cells (MSCs). The concentration ranges selected for each drug and investigational agent were based upon clinically achievable concentrations if the clinical Cmax of the agent was known.
Compounds. The drugs and investigational agents: inavolisib (NSC800729), alpelisib (NSC765974), duvelisib (NSC772469), copanlisib (NSC816437), ipatasertib (NSC767898), afuresertib (NSC778305), talazoparib (NSC767125), sapanisertib (NSC764658), selumetinib (NSC741078), tovorafenib (DAY101, NSC766906), vemurafenib (NSC761431), ravoxertinib (NSC781343), sotorasib (NSC818433), MRTX1133 (NSC 836407), abemaciclib (NSC 768073), palbociclib (NSC758247), venetoclax (NSC 766270), SY5609 (NSC837396), enzalutamide (NSC755605), and darolutamide (NSC825331), were obtained from the National Cancer Institute (NCI) Developmental Therapeutics Program Chemical Repository. The FDA-approved anticancer drug set is available from the NCI Developmental Therapeutics Program. […] The stock solutions were prepared in dimethyl sulfoxide (DMSO, Sigma-Aldrich, St. Louis, MO, cat. D2650) at 800-fold the tested concentration and stored at -70 degrees C prior to their use. All drugs and investigational agents were tested over a range starting from a high concentration at or near the clinical Cmax and decreasing in half-log increments. If the clinical Cmax for an agent had not been determined, the highest concentration tested was 10 microM.
Cell Culture. All cells were maintained in an incubator at 37 degrees C and 5% CO2 with 95% humidity. The PDC lines were cultured according to standard operating procedures established by the NCI PDMR (https://pdmr.cancer.gov/sops/default.htm). All PDCs were thawed and cultured in Matrigel-coated flasks prepared with a working solution of 1X Ham's F-12 nutrient mix, without supplementation (Invitrogen, Waltham, MA, cat. 11765054), 100 U/mL penicillin-streptomycin (Invitrogen, cat. 15140122), and 2.5% Matrigel (Corning Inc., Corning, NY, cat. 354248) for the first three passages. The 354836-022-R-J1-PDC, 475296-252-R-J1-PDC, and 997726-040-R-J2-PDC lines were cultured in 6A media, which includes advanced DMEM/F-12 (Thermo Fisher Scientific, cat. 12634028), 10 mM HEPES (Thermo Fisher Scientific, cat. 15630080), 1X GlutaMAX supplement (Thermo Fisher Scientific, cat. 35050061), 0.1 mg/mL primocin (InvivoGen, San Diego, CA, cat. ant-pm-2), 10% defined fetal bovine serum, heat inactivated (HyClone Laboratories Inc., Logan, UT, cat. SH30070.03HI), 50% L-WRN conditioned media (ATCC, cat. CRL-3276), 1.25 mM N-Acetyl-L-cysteine (Sigma-Aldrich, cat. A9165), 10 mM nicotinamide (Sigma-Aldrich, cat. N0636), 1X B-27 supplement (Thermo Fisher Scientific, cat. 17504044), 1X N-2 supplement (Thermo Fisher Scientific, cat. 17502048), and 10 microM Y-27632 dihydrochloride (Tocris Bioscience, Bristol, United Kingdom, cat. 1254). The 624824-186-R-J2-PDC line was cultured in 6C/Colon 1B media, which includes all 6A media components plus 50 ng/mL human EGF recombinant protein (Thermo Fisher Scientific, cat. PHG0311). […]

[1] = second compound 0.0316 µM, first compound 0.0316 µM
[2] = second compound 0.0316 µM, first compound 0.1 µM
[3] = second compound 0.0316 µM, first compound 0.316 µM
[4] = second compound 0.0316 µM, first compound 1 µM
[5] = second compound 0.0316 µM, first compound 3.16 µM
[6] = second compound 0.0316 µM, first compound 10 µM
[7] = second compound 0.1 µM, first compound 0.0316 µM
[8] = second compound 0.1 µM, first compound 0.1 µM
[9] = second compound 0.1 µM, first compound 0.316 µM
[10] = second compound 0.1 µM, first compound 1 µM
[11] = second compound 0.1 µM, first compound 3.16 µM
[12] = second compound 0.1 µM, first compound 10 µM
[13] = second compound 0.316 µM, first compound 0.0316 µM
[14] = second compound 0.316 µM, first compound 0.1 µM
[15] = second compound 0.316 µM, first compound 0.316 µM
[16] = second compound 0.316 µM, first compound 1 µM
[17] = second compound 0.316 µM, first compound 3.16 µM
[18] = second compound 0.316 µM, first compound 10 µM
[19] = second compound 1 µM, first compound 0.0316 µM
[20] = second compound 1 µM, first compound 0.1 µM
[21] = second compound 1 µM, first compound 0.316 µM
[22] = second compound 1 µM, first compound 1 µM
[23] = second compound 1 µM, first compound 3.16 µM
[24] = second compound 1 µM, first compound 10 µM
[25] = second compound 3.16 µM, first compound 0.0316 µM
[26] = second compound 3.16 µM, first compound 0.1 µM
[27] = second compound 3.16 µM, first compound 0.316 µM
[28] = second compound 3.16 µM, first compound 1 µM
[29] = second compound 3.16 µM, first compound 3.16 µM
[30] = second compound 3.16 µM, first compound 10 µM
[31] = second compound 10 µM, first compound 0.0316 µM
[32] = second compound 10 µM, first compound 0.1 µM
[33] = second compound 10 µM, first compound 0.316 µM
[34] = second compound 10 µM, first compound 1 µM
[35] = second compound 10 µM, first compound 3.16 µM
[36] = second compound 10 µM, first compound 10 µM
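Further: spheroids exposed to compounds for seven days before readout.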

CC(C)NCC(C(=O)N1CCN(c2ncnc3c2C(C)CC3O)CC1)c1ccc(Cl)cc1 (centres undefined) + Cc1nc(NC(=O)N2CCCC2C(N)=O)sc1-c1ccnc(C(C)(C)C(F)(F)F)c1
IC50 (second compound 0.0316 µM): > 10 µM | IC50 (second compound 0.1 µM): > 10 µM | IC50 (second compound 0.316 µM): > 10 µM | IC50 (second compound 1 µM): > 10 µM | IC50 (second compound 3.16 µM): 8.17 µM | IC50 (second compound 10 µM): 2.36 µM | viability, T/C [1]: 108% | viability, T/C [2]: 99.3% | viability, T/C [3]: 96.3% | viability, T/C [4]: 104% | viability, T/C [5]: 91.8% | viability, T/C [6]: 64.6% | viability, T/C [7]: 99.4% | viability, T/C [8]: 110% | viability, T/C [9]: 95.6% | viability, T/C [10]: 102% | viability, T/C [11]: 102% | viability, T/C [12]: 60.7% | viability, T/C [13]: 90.7% | viability, T/C [14]: 103% | viability, T/C [15]: 104% | viability, T/C [16]: 85.2% | viability, T/C [17]: 86.9% | viability, T/C [18]: 62.1% | viability, T/C [19]: 107% | viability, T/C [20]: 74.2% | viability, T/C [21]: 87.4% | viability, T/C [22]: 75.5% | viability, T/C [23]: 89.9% | viability, T/C [24]: 73.5% | viability, T/C [25]: 74.7% | viability, T/C [26]: 68.3% | viability, T/C [27]: 71.8% | viability, T/C [28]: 76.7% | viability, T/C [29]: 68.5% | viability, T/C [30]: 45.9% | viability, T/C [31]: 57.8% | viability, T/C [32]: 66.5% | viability, T/C [33]: 57.2% | viability, T/C [34]: 62.5% | viability, T/C [35]: 46.2% | viability, T/C [36]: 35.9%

CC1(C)CCC(CN2CCN(c3ccc(C(=O)NS(=O)(=O)c4ccc(NCC5CCOCC5)c([N+](=O)[O-])c4)c(Oc4cnc5[nH]ccc5c4)c3)CC2)=C(c2ccc(Cl)cc2)C1 + CC(Nc1ncnc2nc[nH]c12)c1cc2cccc(Cl)c2c(=O)n1-c1ccccc1
IC50 (second compound 0.0316 µM): > 10 µM | IC50 (second compound 0.1 µM): > 10 µM | IC50 (second compound 0.316 µM): > 10 µM | IC50 (second compound 1 µM): > 10 µM | IC50 (second compound 3.16 µM): > 10 µM | IC50 (second compound 10 µM): > 10 µM | viability, T/C [1]: 107% | viability, T/C [2]: 93.6% | viability, T/C [3]: 101% | viability, T/C [4]: 93% | viability, T/C [5]: 119% | viability, T/C [6]: 69.9% | viability, T/C [7]: 96.3% | viability, T/C [8]: 102% | viability, T/C [9]: 90.6% | viability, T/C [10]: 94.6% | viability, T/C [11]: 107% | viability, T/C [12]: 51.2% | viability, T/C [13]: 101% | viability, T/C [14]: 106% | viability, T/C [15]: 104% | viability, T/C [16]: 116% | viability, T/C [17]: 105% | viability, T/C [18]: 80.3% | viability, T/C [19]: 90.1% | viability, T/C [20]: 96.2% | viability, T/C [21]: 100% | viability, T/C [22]: 100% | viability, T/C [23]: 101% | viability, T/C [24]: 76.8% | viability, T/C [25]: 93.4% | viability, T/C [26]: 108% | viability, T/C [27]: 94.4% | viability, T/C [28]: 93.1% | viability, T/C [29]: 99.9% | viability, T/C [30]: 54.5% | viability, T/C [31]: 93.2% | viability, T/C [32]: 84.3% | viability, T/C [33]: 101% | viability, T/C [34]: 88% | viability, T/C [35]: 97.7% | viability, T/C [36]: 68.2%
